Test results: article PMC5750214 (Nature Communications, 2018)
Substitutions are numbered along the chain they refer to.

Tests used:
[1] = target: T1, human AT1 receptor (angiotensin II type 1 receptor) (Homo sapiens, UniProt P30556, R167A); assay: […]-Ang II competition binding, membranes
T1 construct: gene AGTR1; full-length receptor transfected in HEK293A cells; AT1 (human)-mCherry plasmid for NFAT assay
T1 sequence (P30556 1-359 R167A): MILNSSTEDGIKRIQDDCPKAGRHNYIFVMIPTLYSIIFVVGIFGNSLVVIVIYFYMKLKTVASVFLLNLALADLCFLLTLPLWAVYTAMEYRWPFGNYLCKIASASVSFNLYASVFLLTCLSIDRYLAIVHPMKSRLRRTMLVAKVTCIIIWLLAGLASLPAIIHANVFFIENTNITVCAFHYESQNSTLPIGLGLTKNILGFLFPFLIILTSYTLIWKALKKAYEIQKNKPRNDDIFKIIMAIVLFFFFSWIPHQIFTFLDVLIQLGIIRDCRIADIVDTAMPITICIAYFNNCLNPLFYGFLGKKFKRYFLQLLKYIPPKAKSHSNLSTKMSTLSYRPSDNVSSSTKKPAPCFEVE

[2] = target: T2, human AT1 receptor (angiotensin II type 1 receptor) (Homo sapiens, UniProt P30556, C289S); assay: […]-Ang II competition binding, membranes
T2 construct: gene AGTR1; full-length receptor transfected in HEK293A cells; AT1 (human)-mCherry plasmid for NFAT assay
T2 sequence (P30556 1-359 C289S): T1 sequence (P30556 1-359 R167A) with A167R, C289S

[3] = target: T3, human AT1 receptor (angiotensin II type 1 receptor) (Homo sapiens, UniProt P30556); assay: Ca2+ flux, Fluo-3-AM, HEK293A cells; type: cell-based
T3 construct: gene AGTR1; full-length receptor transfected in HEK293A cells; AT1 (human)-mCherry plasmid for NFAT assay
T3 sequence (P30556 1-359): T1 sequence (P30556 1-359 R167A) with A167R

[4] = target: T3, human AT1 receptor (angiotensin II type 1 receptor); assay: […]-Ang II competition binding, membranes

Ki [1]: 92 µM
Ki [2]: 159 µM
EC50 [3]: 81.3 µM
Ki [4]: 10.7 µM
SMILES: NC(CCS)C(=O)O (racemic) [Hcy]
